Patent publication US5439920A, “1,2,5,6-tetrahydropyridine derivative, process for preparing it and its applications in therapy” (Laboratoire L. Lafon, priority 1993, dated 1995)
Structures can show the parent of a compound that is named as a salt.

Experiments:
[1] = molecular target: T1, α2 receptors of rat cerebral cortex (Rattus norvegicus, UniProt P22909); test: Affinity for the α2 receptors of rat cerebral cortex ([^3 H]clonidine displacement); format: binding, Rats (male, CD1, Sprague-Dawley); conditions: rat cerebral cortex membranes, [^3 H]clonidine as marker
T1 construct: The cerebral cortex is immediately removed; from tissue; host or cells: rat cerebral cortex membranes
T1 sequence (P22909 1-465): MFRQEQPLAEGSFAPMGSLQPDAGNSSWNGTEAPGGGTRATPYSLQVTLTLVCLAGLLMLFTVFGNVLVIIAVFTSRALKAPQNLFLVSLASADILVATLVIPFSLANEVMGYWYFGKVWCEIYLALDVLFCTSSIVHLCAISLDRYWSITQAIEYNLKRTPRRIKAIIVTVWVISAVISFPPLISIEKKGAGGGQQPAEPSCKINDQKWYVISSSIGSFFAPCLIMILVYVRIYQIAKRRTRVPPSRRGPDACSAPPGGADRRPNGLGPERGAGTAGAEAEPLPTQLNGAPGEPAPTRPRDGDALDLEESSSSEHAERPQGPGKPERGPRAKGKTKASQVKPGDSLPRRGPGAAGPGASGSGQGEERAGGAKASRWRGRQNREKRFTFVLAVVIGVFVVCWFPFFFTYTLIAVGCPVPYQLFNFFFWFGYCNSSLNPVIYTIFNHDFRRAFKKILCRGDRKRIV
Procedure: Rats (male, CD1, Sprague-Dawley, 200-250 g) are sacrificed by decapitation. The cerebral cortex is immediately removed. The cerebral cortices of 4 rats are homogenized in 40 ml of buffer. The homogenates are centrifuged at 20,000 rpm for 15 minutes. The pellet is resuspended in 40 ml of buffer and subjected to a second centrifugation (20,000 rpm for 15 minutes). The pellet thereby obtained is suspended in 8 ml of buffer and then stored at -80° C. until used. On the day of the experiment, a membrane suspension is prepared from the frozen suspension. Aliquots of this membrane suspension are mixed with radioactive ligands (used as marker for each type of receptor) and with increasing concentrations of the test compound, and then incubated (final volume: 1 ml). Reaction is stopped by filtration through a 48-hole HARVESTER system (WHATMAN GF/B filter strip). The filter strip is then washed 3 times with 5 ml of buffer and thereafter placed in an automatic cutting system (BRANDEL). The cut filters fall into counting vials and 4 ml of scintillation fluid (Aquasafe 300, ZINSSER) are distributed automatically by the same system (BRANDEL). Each sample is subjected to counting of the radioactivity using a liquid scintillation counter (KONTRON). Three experimental series are carried out with the test compound, each experiment being carried out in duplicate. […]

[2] = system: intergroup aggressive behaviour; test: Action on intergroup aggressive behaviour; format: in vivo; conditions: mice, half an hour after test compound, fights in 10 minutes
Procedure: After spending 3 weeks in each of the halves of a cage separated by an opaque partition, groups of 3 mice receive the test compound. Half an hour later, the two groups in the same cage are brought together by withdrawing the partition, and the number of fights occurring in the course of 10 minutes is noted.

spontaneous motility = test: Action on spontaneous motility in mice; format: in vivo; conditions: Mus musculus, ip, 0.5 h, intraperitoneal, half an hour before test, motility recorded over 30 minutes, read-out: dose at and above which a significant decrease in locomotion is observed
Procedure: Half an hour after receiving the test compound intraperitoneally, the mice are placed in an activity-measuring device, where their motility is recorded over 30 minutes.

α2 receptors = test: Interaction with yohimbine in mice; format: in vivo
NMRI mice = test: Pretoxicity in NMRI mice, intraperitoneal; format: in vivo; conditions: 3 animals per dose, IP, increasing doses 16-512 mg/kg
Procedure: Pretoxicity studies were performed in NMRI mice (3 animals per dose) with increasing doses of 16, 32, 64, 128, 256 and 512 mg/kg of products administered intraperitoneally. The dose causing the death of the three animals tested is given.

Compound | IC50 [1] [nM] | minimal effective dose ([2]; Mus musculus, 0.5 h, read-out: dose at and above which the number of fights is decreased) [mg/kg] | dose at which the number of fights is most particularly decreased [2] [mg/kg] | minimal effective dose (spontaneous motility) [mg/kg] | effect of yohimbine on hypothermia induced by the compound (α2 receptors; yohimbine 0.5 mg/kg i.p., compound 0.125 and 0.5 mg/kg i.p.) | effect of yohimbine on hypomotility induced by the compound (α2 receptors; yohimbine 1 mg/kg i.p., compound 0.5 and 2 mg/kg i.p.) | dose causing the death of the three animals tested (NMRI mice) [mg/kg]
CC(C)N1CCC=C(c2ccccc2)C1 [CRL 41 244, N-isopropyl-3-phenyl-l,2,5,6-tetrahydropyridine, reference compound] | 700 | – | – | – | – | – | –
C1=C(c2ccccc2)CNCC1 [Example 1, 3-phenyl-l,2,5,6-tetrahydropyridine hydrochloride] | 26 | ≥ 0.032 | 0.125 | ≥ 0.032 | decreases the hypothermia | decreases the hypomotility | 128
